Assay [1] relates to tetrabenazine-induced depression in mice. Briefly: Antidepressant activity (inhibition of tetrabenazine induced ptosis / tetrabenazine-induced depression). The class given is in vivo. The following applies: for ED50: Mus musculus. As for the experimental part: (§1) The antidepressant and analgesic activities of various spiro compounds having the formula [drawing 32] where X is hydrogen, chlorine or bromine and m is 1 or 2, taken as representative of a lower class of compounds having the formula I are presented in Table 1. The data presented therein were determined in accordance with the above described procedures.
1. Antidepressant activity (as measured by inhibition of
tetrabenazine induced ptosis).
3. Anti-depressant activity (as measured by inhibition
tetrabenazine induced ptosis)

Assay [2] relates to phenylquinone writhing in mice. Briefly: Analgesic activity (phenylquinone writhing test). The class given is in vivo, male, CD-1 mice. The conditions noted are these: for ED50: Mus musculus, sc, Table 1 part 2, estimated by computer linear regression analysis; for % Inhibition (analgesic activities, phenylquinone writhing test): 20 mg/kg, subcutaneously (sc), Table 1 part 4. As for the experimental part: This produces a characteristic "writhe" which is defined as an inward rotation of one or more feet with twisting and turning of the trunk, drawing in of the abdominal wall, lordosis and arching of the back.
A total of 28 male, CD-1 mice (18 to 30 grams) are employed for a time response. Animals receive food and water ad libitum. Drugs to be tested are prepared with distilled water, and if insoluble, one drop of a suitable surfactant is added.
Twenty animals (5/group) are administered the drug subcutaneously (sc) 15, 30, 45 and 60 minutes prior to phenylquinone injection. Control animals (2/group) receive an equal amount of vehicle. After the administration of phenylquinone, the mice are placed separately into one-liter beakers and 5 minutes are allowed to elapse. The mice are then observed for a period of 10 minutes and the number of writhes are recorded for each animal. The formula for computing percent inhibition is: [formula]
The time period with the greatest percent of inhibition is considered the peak time.
A dose range is run in the same fashion as a time response except ten animals per group are tested at the peak time of drug activity. Fifty animals, four drug groups, and a vehicle control are employed. Animals are dosed and tested in a randomized manner. An estimated ED50 is calculated by a computer linear regression analysis.
as §1
2. Analgesic activities (as measured in the
phenylquinone writhing test).

[3] abbreviates: po, Table 1 part 1, read-out: ED50 (antidepressant activity, inhibition of tetrabenazine induced ptosis).

Structures can show the parent of a compound that is named as a salt. Where two headings read alike, the source gives them in different places.

By ED50 is commonly meant the midpoint of the dose-response relation. For the compound `CN(C)C[C@@H]1CCCC[C@@]12Cc1cc(Cl)ccc1O2` (relative stereo) [5-chloro Me cis 1, (1'β,2'β)-2'-Dimethylaminomethylspiro[5-chlorobenzofuran-2(3H),1'-cyclohexane]Hydrochloride], the ED50 was 1.5 mg/kg in assay [1] (setting [3]) and 4.96 mg/kg in assay [2].

As to `CN(C)C[C@@H]1CCCC[C@@]12Cc1ccccc1O2` (relative stereo) [H Me cis 1, (1'β,2'β)-2'-Dimethylaminomethylspiro[benzofuran-2(3H),1'-cyclohexane]Hydrochloride], the ED50 in assay [2] was 5.98 mg/kg. As to `CN(C)C[C@@H]1CCCC[C@]12Cc1c(Cl)cccc1O2` (relative stereo) [4-chloro Me trans 1, (1'α2'β)-2'-Dimethylaminomethylspiro[4-chlorobenzofuran-2(3H),1'-cyclohexane]Hydrochloride], the ED50 in assay [1] (setting [3]) is 5.7 mg/kg. As to `CN(C)C[C@@H]1CCCC[C@]12Cc1ccccc1O2` (relative stereo) [H Me trans 1, (1'β,2'β)-2'-Dimethylaminomethylspiro[benzofuran-2(3H),1'-cyclohexane]Hydrochloride], the figures for the ED50 in assay [1] (setting [3]) and in assay [2] were 3 mg/kg and 2.9 mg/kg, respectively. As for `CN(C)C[C@@H]1CCCC[C@@]12Cc1cc(Cl)c(Cl)cc1O2` (relative stereo) [5,6-dichloro Me cis 1, (1'β,2'β)-2'-Dimethylaminomethylspiro[5,6-dichlorobenzofuran-2(3H),1'-cyclohexane]Hydrochloride], the ED50 in assay [1] (setting [3]) was 3.46 mg/kg. For `CN(C)C[C@@H]1CCC[C@@]12Cc1ccccc1O2` (relative stereo) [(1'β,2'β)-2'-dimethylaminomethylspiro[benzofuran-2(3H),1'-cyclopentane]hydrochloride], in assay [1] (20 mg/kg intraperitoneal, Table 1 part 3), the “% Inhibition (anti-depressant activity, inhibition of tetrabenazine induced ptosis)” value is listed as 53%. Also, the “% Inhibition (analgesic activities, phenylquinone writhing test)” value in assay [2] worked out at 37%. With `CN(C)C[C@@H]1CCC[C@@]12Cc1cc(Br)ccc1O2` (relative stereo) [(1'β,2'β)-2'-dimethylaminomethylspiro[5-bromobenzofuran-2(3H),1'-cyclopentane]hydrochloride], the ED50 in assay [1] ((po) [orally], Table 1 part 3, read-out: 50% Inhibition (ED50), anti-depressant activity, inhibition of tetrabenazine induced ptosis) is 17.3 mg/kg. Moreover, the “% Inhibition (analgesic activities, phenylquinone writhing test)” value in assay [2] is recorded as 53%.

Turning to `CCN(CC)C[C@@H]1CCCC[C@@]12Cc1cc(Cl)ccc1O2` (relative stereo) [5-chloro Et cis 1, (1'β,2'β)-2'-Diethylaminomethylspiro[5-chlorobenzofuran-2(3H),1'-cyclohexane]Hydrochloride], the ED50 in assay [1] (setting [3]) was determined as 4.73 mg/kg. Consider `CN(C)C[C@@H]1CCCC[C@]12Cc1cc(Cl)ccc1O2` (relative stereo) [5-chloro Me trans 1, (1'α,2'β)-2'-Dimethylaminomethylspiro[5-chlorobenzofuran-2(3H),1'-cyclohexane]Hydrochloride], for which the 50% effective dose (ED50) in assay [1] (setting [3]) was determined as 1.39 mg/kg. The same measure, in the same setting: in the case of `CN(C)C[C@@H]1CCCC[C@@]12Cc1cc(Br)ccc1O2` (relative stereo) [5-bromo Me cis 1, (1'β,2'β)-2'-Dimethylaminomethylspiro[5-bromobenzofuran-2(3H),1'-cyclohexane]Hydrochloride] it was 4.73 mg/kg; in that of `CN(C)C[C@@H]1CCCC[C@]12Cc1ccc(Cl)cc1O2` (relative stereo) [6-chloro Me trans 1, (1'α,1'β)-2'-Dimethylaminomethylspiro[6-chlorobenzofuran-2(3H),1'-cyclohexane]Hydrochloride], 0.42 mg/kg. Regarding `CN(C)C[C@@H]1CCC[C@@]12Cc1cc(Cl)ccc1O2` (relative stereo) [(1'β,2'β)-2'-dimethylaminomethylspiro[5-chlorobenzofuran-2(3H),1'-cyclopentane]hydrochloride], the “% Inhibition (analgesic activities, phenylquinone writhing test)” value in assay [2] is given as 40%.
